According to PubChem BioAssay AID2060613 (Molecular Pharmacology Branch, DTP, NCI, 2025):
“And” between values parts separate entries of the source, which are not always exact repeats. Identical values can stand only once.

System: 233499-124-R-J3-PDC complex spheroid viability
Experiment: Anticancer human tumor 233499-124-R-J3-PDC patient-derived colon adenocarcinoma cell line growth inhibition [CLK]
Details: for viability, T/C: stronger effect = lower value; active = viability on the fitted dose curve at most 10% of control; inactive = the rest
Outline: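 Patient-derived tumor cells grown as complex spheroids with HUVEC endothelial cells and mesenchymal stem cells, treated with drug combinations. Concentrations descend in half-log steps from near clinical Cmax, or from 10 microM if Cmax unknown.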

[1] = curve of first compound, second compound 0.0316 µM
[2] = curve of first compound, second compound 0.1 µM
[3] = curve of first compound, second compound 0.316 µM
[4] = curve of first compound, second compound 1 µM
[5] = curve of first compound, second compound 3.16 µM
[6] = curve of first compound, second compound 10 µM
[7] = second compound 0.0316 µM, first compound 0.0316 µM
[8] = second compound 0.0316 µM, first compound 0.1 µM
[9] = second compound 0.0316 µM, first compound 0.316 µM
[10] = second compound 0.0316 µM, first compound 1 µM
[11] = second compound 0.0316 µM, first compound 3.16 µM
[12] = second compound 0.0316 µM, first compound 10 µM
[13] = second compound 0.1 µM, first compound 0.0316 µM
[14] = second compound 0.1 µM, first compound 0.1 µM
[15] = second compound 0.1 µM, first compound 0.316 µM
[16] = second compound 0.1 µM, first compound 1 µM
[17] = second compound 0.1 µM, first compound 3.16 µM
[18] = second compound 0.1 µM, first compound 10 µM
[19] = second compound 0.316 µM, first compound 0.0316 µM
[20] = second compound 0.316 µM, first compound 0.1 µM
[21] = second compound 0.316 µM, first compound 0.316 µM
[22] = second compound 0.316 µM, first compound 1 µM
[23] = second compound 0.316 µM, first compound 3.16 µM
[24] = second compound 0.316 µM, first compound 10 µM
[25] = second compound 1 µM, first compound 0.0316 µM
[26] = second compound 1 µM, first compound 0.1 µM
[27] = second compound 1 µM, first compound 0.316 µM
[28] = second compound 1 µM, first compound 1 µM
[29] = second compound 1 µM, first compound 3.16 µM
[30] = second compound 1 µM, first compound 10 µM
[31] = second compound 3.16 µM, first compound 0.0316 µM
[32] = second compound 3.16 µM, first compound 0.1 µM
[33] = second compound 3.16 µM, first compound 0.316 µM
[34] = second compound 3.16 µM, first compound 1 µM
[35] = second compound 3.16 µM, first compound 3.16 µM
[36] = second compound 3.16 µM, first compound 10 µM
[37] = second compound 10 µM, first compound 0.0316 µM
[38] = second compound 10 µM, first compound 0.1 µM
[39] = second compound 10 µM, first compound 0.316 µM
[40] = second compound 10 µM, first compound 1 µM
[41] = second compound 10 µM, first compound 3.16 µM
[42] = second compound 10 µM, first compound 10 µM
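Note: spheroids exposed to the drug combinations for seven days.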
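Throughout, for viability, T/C: percent viability relative to DMSO vehicle control wells taken as 100%.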

CC1COCCN1c1cc(C2(S(C)(=N)=O)CC2)nc(-c2ccnc3[nH]ccc23)n1 (configuration not stated) + CN1CCN(c2cc(C(=O)Nc3cc4cc(-c5cnn(C)c5)ccc4cn3)ccn2)CC1
> 10000 nM: IC50 [1] | IC50 [2]
6970 nM: IC50 [3]
< 31.6 nM: IC50 [4] | IC50 [5] | IC50 [6]
inactive: viability, T/C [7] 99.9% | viability, T/C [8] 109% | viability, T/C [9] 98.3% | viability, T/C [10] 106% | viability, T/C [11] 90.3% | viability, T/C [12] 66.6% | viability, T/C [13] 96.6% | viability, T/C [14] 109% | viability, T/C [15] 103% | viability, T/C [16] 90.8% | viability, T/C [17] 75.7% | viability, T/C [18] 53.6% | viability, T/C [19] 94.2% | viability, T/C [20] 93.3% | viability, T/C [21] 98.9% | viability, T/C [22] 86.7% | viability, T/C [23] 71.2% | viability, T/C [24] 40.5%
active: viability, T/C [25] 3.94% | viability, T/C [26] 1.1% | viability, T/C [27] 0.55% | viability, T/C [28] 1.34% | viability, T/C [29] 1.62% | viability, T/C [30] 0.81% | viability, T/C [31] 0.77% | viability, T/C [32] 0.89% | viability, T/C [33] 1.57% | viability, T/C [34] 0.66% | viability, T/C [35] 0.84% | viability, T/C [36] 0.92% | viability, T/C [37] 0.55% | viability, T/C [38] 0.49% | viability, T/C [39] 0.53% | viability, T/C [40] 0.5% | viability, T/C [41] 0.6% | viability, T/C [42] 0.44%

Cn1ncnc1[C@H]1c2n[nH]c(=O)c3cc(F)cc(c23)N[C@@H]1c1ccc(F)cc1
> 100 nM: IC50 (curve of compound)
inactive: viability, T/C (compound 0.000316 µM) 100% and 107% | viability, T/C (compound 0.001 µM) 85.7% and 92% | viability, T/C (compound 0.00316 µM) 100% and 103% | viability, T/C (compound 0.01 µM) 97.6% and 97.4% | viability, T/C (compound 0.0316 µM) 100% and 97.1% | viability, T/C (compound 0.1 µM) 103% and 96%

COc1ccc([C@@H](O)c2cc(-c3ncnc4cc(N5CCOCC5)ccc34)c(F)cc2Cl)nn1 + CNC(=O)c1ccc(Nc2nc(OC3CCCC3)c3c(-c4ccc5nc(C)oc5c4)c[nH]c3n2)c(OC)c1
1510 nM: IC50 [4]
> 10000 nM: IC50 [1] | IC50 [2] | IC50 [3]
2680 nM: IC50 [5]
inactive: viability, T/C [7] 94.7% | viability, T/C [8] 89.6% | viability, T/C [9] 86.6% | viability, T/C [10] 97% | viability, T/C [11] 81.1% | viability, T/C [12] 52.8% | viability, T/C [13] 54.9% | viability, T/C [14] 65.2% | viability, T/C [15] 67.8% | viability, T/C [16] 55.8% | viability, T/C [17] 65.5% | viability, T/C [18] 63.8% | viability, T/C [19] 68.4% | viability, T/C [20] 52.1% | viability, T/C [21] 57% | viability, T/C [22] 50.2% | viability, T/C [23] 69.4% | viability, T/C [24] 41.3% | viability, T/C [25] 84.6% | viability, T/C [26] 64% | viability, T/C [27] 64.6% | viability, T/C [28] 51.1% | viability, T/C [29] 48.4% | viability, T/C [30] 37.6% | viability, T/C [31] 72.8% | viability, T/C [32] 68.9% | viability, T/C [33] 37.1% | viability, T/C [34] 55.2% | viability, T/C [35] 65.3% | viability, T/C [36] 39% | viability, T/C [37] 55.3% | viability, T/C [38] 49.2% | viability, T/C [39] 43.7% | viability, T/C [40] 46.4% | viability, T/C [41] 47.7% | viability, T/C [42] 38.9%
118 nM: IC50 [6]

CC(CO)NC(=O)c1cc(-c2ccc(Cl)cc2)nn(-c2cnn(C)c2)c1=O (configuration not stated)
> 10000 nM: IC50 (curve of compound)
inactive: viability, T/C (compound 0.0316 µM) 103% and 94.8% | viability, T/C (compound 0.1 µM) 95.2% and 90.1% | viability, T/C (compound 0.316 µM) 96.3% and 95.6% | viability, T/C (compound 1 µM) 96.8% and 92.9% | viability, T/C (compound 3.16 µM) 92.7% and 96% | viability, T/C (compound 10 µM) 89.7% and 83.2%

CCc1c2c(nc3ccc(O)cc13)-c1cc3c(c(=O)n1C2)COC(=O)[C@]3(O)CC + CN1CCN(c2cc(C(=O)Nc3cc4cc(-c5cnn(C)c5)ccc4cn3)ccn2)CC1
< 3.16 nM: IC50 [4] | IC50 [5] | IC50 [6]
601 nM: IC50 [1]
463 nM: IC50 [2]
81.4 nM: IC50 [3]
active: viability, T/C [22] 9.37% | viability, T/C (second compound 1 µM, first compound 0.00316 µM) 1.6% | viability, T/C (second compound 1 µM, first compound 0.01 µM) 0.5% | viability, T/C [25] 0.39% | viability, T/C [26] 0.38% | viability, T/C [27] 0.35% | viability, T/C [28] 0.47% | viability, T/C (second compound 3.16 µM, first compound 0.00316 µM) 0.46% | viability, T/C (second compound 3.16 µM, first compound 0.01 µM) 0.5% | viability, T/C [31] 0.59% | viability, T/C [32] 0.52% | viability, T/C [33] 0.63% | viability, T/C [34] 0.55% | viability, T/C (second compound 10 µM, first compound 0.00316 µM) 0.36% | viability, T/C (second compound 10 µM, first compound 0.01 µM) 0.33% | viability, T/C [37] 0.32% | viability, T/C [38] 0.37% | viability, T/C [39] 0.42% | viability, T/C [40] 0.3%
inactive: viability, T/C (second compound 0.0316 µM, first compound 0.00316 µM) 95.4% | viability, T/C (second compound 0.0316 µM, first compound 0.01 µM) 65.8% | viability, T/C [7] 81.8% | viability, T/C [8] 87.3% | viability, T/C [9] 60.5% | viability, T/C [10] 41.7% | viability, T/C (second compound 0.1 µM, first compound 0.00316 µM) 85.6% | viability, T/C (second compound 0.1 µM, first compound 0.01 µM) 82.5% | viability, T/C [13] 88% | viability, T/C [14] 88.1% | viability, T/C [15] 60.7% | viability, T/C [16] 28.4% | viability, T/C (second compound 0.316 µM, first compound 0.00316 µM) 88% | viability, T/C (second compound 0.316 µM, first compound 0.01 µM) 80.9% | viability, T/C [19] 58.5% | viability, T/C [20] 58.5% | viability, T/C [21] 14.1%

CCN1CCN(Cc2ccc(Nc3ncc(F)c(-c4cc(F)c5nc(C)n(C(C)C)c5c4)n3)nc2)CC1
> 1000 nM: IC50 (curve of compound)
inactive: viability, T/C (compound 0.00316 µM) 100% and 102% | viability, T/C (compound 0.01 µM) 86.8% and 96.5% | viability, T/C (compound 0.0316 µM) 98.5% and 88% | viability, T/C (compound 0.1 µM) 93.8% and 104% | viability, T/C (compound 0.316 µM) 94.1% and 98.2% | viability, T/C (compound 1 µM) 102% and 64.3%
